Test results taken from patent publication US10144742B2 (Millennium Pharmaceuticals, Inc., priority 2014, dated 2018).

What was measured:
hNAMPT protein = hNAMPT protein (Homo sapiens (Human), UniProt P43490); experiment: NAMPT enzyme assay (TR-FRET/HTRF, BodiPY ligand, anti 6His-Tb); type: binding; conditions: for inhibition at 1 µM: NAMPT inhibition at compound concentration 1 μM, read-out: Percent Inhibition; for IC50: NAMPT inhibition, IC50 range class, read-out: IC50
Outline: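 TR-FRET binding assay in which His-tagged human NAMPT with anti-6His-Tb is displaced by compound from a BodiPY ligand, incubated 1 h at rt in the dark. Excitation was at 320 nm, with the 520/486 nm emission ratio read. IC50 was fitted from inhibition relative to DMSO controls.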

PC3 cells = experiment: PC3 growth inhibition (Cell-titer glo, 72 hours); type: cell-based; conditions: Homo sapiens, PC-3; compound concentration 1.667 μM; PC3 cells, 72 hours, Cell-titer glo; read-out: Percent Inhibition (PC3 growth inhibition)
Outline: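 PC3 cells in RPMI1640 seeded overnight at 37 °C, 5% CO2, then exposed to compound diluted in AIM serum-free medium for 72 h. Viability by CellTiter-Glo luminescence vs DMSO controls; single-concentration % remaining viability (1 μM or 1.667 μM), or GI50/LD50 from curves.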

Chain of hNAMPT protein (P43490 whole entry): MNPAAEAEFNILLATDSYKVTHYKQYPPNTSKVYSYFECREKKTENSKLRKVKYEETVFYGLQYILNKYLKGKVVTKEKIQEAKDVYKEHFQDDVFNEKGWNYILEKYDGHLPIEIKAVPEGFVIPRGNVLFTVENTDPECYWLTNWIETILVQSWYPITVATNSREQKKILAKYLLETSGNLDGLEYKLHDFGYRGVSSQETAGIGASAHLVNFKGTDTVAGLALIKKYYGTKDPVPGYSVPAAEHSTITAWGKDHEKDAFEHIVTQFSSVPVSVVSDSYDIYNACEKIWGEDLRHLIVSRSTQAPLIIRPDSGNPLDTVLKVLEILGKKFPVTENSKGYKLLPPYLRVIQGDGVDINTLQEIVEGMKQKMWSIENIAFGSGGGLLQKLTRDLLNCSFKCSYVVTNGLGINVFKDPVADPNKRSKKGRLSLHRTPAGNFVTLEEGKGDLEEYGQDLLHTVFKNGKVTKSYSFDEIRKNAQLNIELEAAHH

| Structure (SMILES) | inhibition at 1 µM (hNAMPT protein) [%] | IC50 (hNAMPT protein) [nM] | inhibition at 1.667 µM (PC3 cells) [%] |
| --- | --- | --- | --- |
| O=C(NCCCc1ncc[nH]1)c1ccc2nc(-c3ccccc3)c(-c3cccs3)nc2c1 [Compound I-477, N-[3-(1H-imidazol-2-yl)propyl]-2-phenyl-3-(2-thienyl)quinoxaline-6-carboxamide] | > 99 | < 100 | 2 |
| CC(C)COc1nc2ccc(C(=O)NCCCc3ncc[nH]3)cc2nc1-c1ccc(F)cc1 [Compound I-478, 3-(4-fluorophenyl)-N-[3-(1H-imidazol-2-yl)propyl]-2-isobutoxyquinoxaline-6-carboxamide] | 96 | < 100 | 2 |
| Nc1ccc(-c2nc3cc(C(=O)NCCCc4ncc[nH]4)ccc3nc2-c2ccc(F)cc2)cc1 [Compound I-479, 3-(4-aminophenyl)-2-(4-fluorophenyl)-N-[3-(1H-imidazol-2-yl)propyl]quinoxaline-6-carboxamide] | 75 | 100 to 500 | 3 |
| O=C(NCCCc1ncc[nH]1)c1ccc2nc(-c3ccc(F)cc3)c(-c3cc(Cl)ccc3F)nc2c1 [Compound I-480, 3-(5-Chloro-2-fluoro-phenyl)-2-(4-fluorophenyl)-N-[3-(1H-imidazol-2-yl)propyl]quinoxaline-6-carboxamide] | 100 | < 100 | 1 |
| COc1ccc(F)c(-c2nc3cc(C(=O)NCCCc4ncc[nH]4)ccc3nc2-c2ccc(F)cc2)c1 [Compound I-481, 3-(2-fluoro-5-methoxyphenyl)-2-(4-fluorophenyl)-N-[3-(1H-imidazol-2-yl)propyl]quinoxaline-6-carboxamide] | 98 | < 100 | 2 |
| CC(C)Oc1nc2ccc(C(=O)NCCCc3c[nH]cn3)cc2nc1-c1ccc(F)cc1 [Compound I-482, 3-(4-Fluorophenyl)-N-[3-(1H-imidazol-4-yl)propyl]-2-isopropoxyquinoxaline-6-carboxamide] | 72 | 100 to 500 | 2 |
| O=C(NCCCc1ncc[nH]1)c1ccc2nc(-c3ccc(Cl)s3)c(-c3ccc(F)cc3)nc2c1 [Compound I-483, 2-(5-chloro-2-thienyl)-3-(4-fluorophenyl)-N-[3-(1H-imidazol-2-yl)propyl]quinoxaline-6-carboxamide] | 77 | 100 to 500 | 2 |
| COc1cccc(-c2nc3cc(C(=O)NCCCc4ncc[nH]4)ccc3nc2-c2ccc(F)cc2)c1 [Compound I-484, 2-(4-fluorophenyl)-N-[3-(1H-imidazol-2-yl)propyl]-3-(3-methoxyphenyl)quinoxaline-6-carboxamide] | 99 | < 100 | 2 |
| C[C@@H]1CN(c2nc3ccc(C(=O)NCCCc4ccc(N)nc4)cc3nc2-c2ccc(F)cc2)C[C@H](C)O1 [Compound I-485, N-[3-(6-aminopyridin-3-yl)propyl]-2-[cis-2,6-dimethylmorpholin-4-yl]-3-(4-fluorophenyl)quinoxaline-6-carboxamide] | 96 | < 100 | 2 |
| Cc1ccc(-c2nc3cc(C(=O)NCCCc4ncc[nH]4)ccc3nc2-c2ccc(F)cc2)cn1 [Compound I-486, 2-(4-fluorophenyl)-N-[3-(1H-imidazol-2-yl)propyl]-3-(6-methylpyridin-3-yl)quinoxaline-6-carboxamide] | 78 | 100 to 500 | 2 |
| O=C(NCc1ccc2nccn2c1)c1ccc2nc(-c3ccc(Cl)cc3)c(-c3ccc(Cl)cc3)nc2c1 [Compound I-487, 2,3-bis(4-chlorophenyl)-N-(imidazo[1,2-a]pyridin-6-ylmethyl)quinoxaline-6-carboxamide] | 70 | 100 to 500 | 1 |
| COc1cc(-c2nc3cc(C(=O)NCCCc4ncc[nH]4)ccc3nc2-c2ccc(F)cc2)ccc1F [Compound I-488, 3-(4-fluoro-3-methoxyphenyl)-2-(4-fluorophenyl)-N-[3-(1H-imidazol-2-yl)propyl]quinoxaline-6-carboxamide] | 98 | < 100 | 2 |
| O=C(NCCCc1ncc[nH]1)c1ccc2nc(OCCc3ccccn3)c(-c3ccc(F)cc3)nc2c1 [Compound I-489, 3-(4-fluorophenyl)-N-[3-(1H-imidazol-2-yl)propyl]-2-[2-(pyridin-2-yl)ethoxy]quinoxaline-6-carboxamide] | > 99 | < 100 | 2 |
| O=C(NCCCc1ncc[nH]1)c1ccc2nc(OCC3CC3)c(-c3ccc(F)cc3)nc2c1 [Compound I-490, 2-(cyclopropylmethoxy)-3-(4-fluorophenyl)-N-[3-(1H-imidazol-2-yl)propyl]quinoxaline-6-carboxamide] | 95 | < 100 | 2 |
| CC(C)Oc1nc2cc(F)c(C(=O)NCCCc3ncc[nH]3)cc2nc1-c1ccc(F)cc1 [Compound I-491, N-(3-(1H-imidazol-2-yl)propyl)-7-fluoro-3-(4-fluorophenyl)-2-isopropoxyquinoxaline-6-carboxamide] | 83 | 100 to 500 | 4 |
| COc1ccc(F)c(-c2nc3cc(C(=O)NCCCc4ncc[nH]4)ccc3nc2OC(C)C)c1 [Compound I-492, 3-(2-fluoro-5-methoxyphenyl)-N-[3-(1H-imidazol-2-yl)propyl]-2-isopropoxyquinoxaline-6-carboxamide] | 94 | < 100 | 3 |
| Cc1ccc(Cl)cc1-c1nc2cc(C(=O)NCCCc3ncc[nH]3)ccc2nc1-c1ccc(F)cc1 [Compound I-493, 3-(5-chloro-2-methylphenyl)-2-(4-fluorophenyl)-N-[3-(1H-imidazol-2-yl)propyl]quinoxaline-6-carboxamide] | 98 | < 100 | 1 |
| Cc1ncsc1-c1nc2cc(C(=O)NCCCc3ncc[nH]3)ccc2nc1-c1ccc(F)cc1 [Compound I-494, 2-(4-fluorophenyl)-N-[3-(1H-imidazol-2-yl)propyl]-3-(4-methyl-1,3-thiazol-5-yl)quinoxaline-6-carboxamide] | > 99 | < 100 | 3 |
| N#CCCOc1nc2ccc(C(=O)NCCCc3ncc[nH]3)cc2nc1-c1ccc(F)cc1 [Compound I-496, 2-(2-cyanoethoxy)-3-(4-fluorophenyl)-N-[3-(1H-imidazol-2-yl)propyl]quinoxaline-6-carboxamide] | 70 | 100 to 500 | > 99 |
| Cc1ccc(-c2nc3cc(C(=O)NCCCc4ncc[nH]4)ccc3nc2-c2ccc(F)cc2)cc1 [Compound I-497, 2-(4-fluorophenyl)-N-[3-(1H-imidazol-2-yl)propyl]-3-(4-methylphenyl)quinoxaline-6-carboxamide] | 80 | 100 to 500 | 2 |
| O=C(NCCCc1ncc[nH]1)c1ccc2nc(OCc3cccc(Cl)c3)c(-c3ccc(F)cc3)nc2c1 [Compound I-498, 2-[(3-chlorobenzyl)oxy]-3-(4-fluorophenyl)-N-[3-(1H-imidazol-2-yl)propyl]quinoxaline-6-carboxamide] | 84 | < 100 | 3 |
| O=C(NCCCc1ncc[nH]1)c1ccc2nc(-c3ccc(F)cc3)c(-c3ccc(Cl)s3)nc2c1 [Compound I-499, 3-(5-chloro-2-thienyl)-2-(4-fluorophenyl)-N-[3-(1H-imidazol-2-yl)propyl]quinoxaline-6-carboxamide] | 98 | < 100 | 2 |
| O=C(NCCCc1ncc[nH]1)c1ccc2nc(OCC3CCCC3)c(-c3ccc(F)cc3)nc2c1 [Compound I-500, 2-(cyclopentylmethoxy)-3-(4-fluorophenyl)-N-[3-(1H-imidazol-2-yl)propyl]quinoxaline-6-carboxamide] | 93 | < 100 | 3 |
| N#Cc1ccc(F)c(-c2nc3cc(C(=O)NCCCc4ncc[nH]4)ccc3nc2-c2ccc(F)cc2)c1 [Compound I-501, 3-(5-cyano-2-fluorophenyl)-2-(4-fluorophenyl)-N-[3-(1H-imidazol-2-yl)propyl]quinoxaline-6-carboxamide] | 99 | < 100 | 2 |
| O=C(NCCCc1ncc[nH]1)c1ccc2nc(-c3ccc(F)cc3)c(-c3ccc(F)c(Cl)c3)nc2c1 [Compound I-502, N-(3-(1H-imidazol-2-yl)propyl)-3-(3-chloro-4-fluorophenyl)-2-(4-fluorophenyl)quinoxaline-6-carboxamide] | 97 | < 100 | 2 |
| Cc1cnn(-c2nc3ccc(C(=O)NCCCc4ncc[nH]4)cc3nc2-c2ccc(F)cc2)c1 [Compound I-503, 3-(4-fluorophenyl)-N-[3-(1H-imidazol-2-yl)propyl]-2-(4-methyl-1H-pyrazol-1-yl)quinoxaline-6-carboxamide] | 84 | 100 to 500 | 3 |
| O=C(NCCCc1ncc[nH]1)c1ccc2nc(-c3ccc(F)cc3)c(-c3sccc3Cl)nc2c1 [Compound I-504, 3-(3-chloro-2-thienyl)-2-(4-fluorophenyl)-N-[3-(1H-imidazol-2-yl)propyl]quinoxaline-6-carboxamide] | 93 | < 100 | 3 |
